This note sets out measurements from PubChem BioAssay AID1288 (Columbia University Molecular Screening Center, 2008).

Active and inactive are the calls of the source. How the calls were made is not given here.

This test is described as follows: E-selectin induction blockers, endothelial cells – imaging, retest plus dose response, cell count, confirmation (AID 1288).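 Further: 0% = stimulated vehicle wells and 100% = unstimulated vehicle wells.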 Particulars: human endothelial cells, TNFa-induced E-selectin, imaging; at 2 µM; stronger effect = higher value.
For the molecule `CC(C)=C1SC(N2CCN(c3ccc(C)cc3)CC2)=NC1=O`, the inhibition was -3.72% (inactive).

As for `O=C(Nc1nc(-c2ccncc2)cs1)c1ccc(S(=O)(=O)N2CCOCC2)cc1`, the inhibition is 1.3% (inactive).

Take `N#Cc1cccc(-n2c(-c3ccccc3)nnc2-c2ccccc2)c1C#N`: the inhibition is 4.7% (inactive).

Regarding `O=C1N(c2ccccc2)C2CS(=O)(=O)CC2N1c1ccc(Br)cc1` (configuration not stated), the inhibition was 10.8% (inactive).

`COc1ccccc1CC1(C)NC(=O)N(CC(=O)N2CC(C)OC(C)C2)C1=O` (configuration not stated): the inhibition was 9.89% (inactive).

Regarding `COc1cccc(N2CC(C(=O)Nc3nnc(SCC(=O)c4ccccc4)s3)CC2=O)c1` (configuration not stated), the inhibition is 9.31% (inactive).

On to `COc1ccc(NC(=O)N(CCCN2CCOCC2)Cc2cccnc2)c(OC)c1`, for which the inhibition is 3.7% (inactive).

With `CCOC(=O)N1CCC(NC(=O)CN2C(=O)CSc3nc(C)cc(C)c32)CC1`, the inhibition was 3.53% (inactive).

Take `O=C(c1ccc(COCC(F)(F)F)o1)N1CCCCCC1`: the inhibition was 5.74% (inactive).

On to `CCOC(=O)c1c(NC(=O)COC)sc2c1CCCC2`, for which the inhibition was 17.5% (inactive).

With `CCOC(=O)Cc1csc(NC(=O)COc2ccc(OC)cc2)n1`, the inhibition is 6.28% (inactive).

Take `CSc1cccc(NC(=O)C2CCCN(S(=O)(=O)c3ccc(F)cc3)C2)c1` (configuration not stated): the inhibition was 35.8% (inactive).

As to `O=C(c1c(Cl)nc2sccn12)N1CCCc2ccccc21`, the inhibition was 0.11% (inactive).

On to `COC(=O)C(NC(=O)c1ccccc1)c1ccccc1` (configuration not stated), for which the inhibition was 5.65% (inactive).

Take `O=c1c2ccccc2n2c(-c3cccc(F)c3)nnc2n1Cc1ccccc1`: the inhibition was -8.49% (inactive).

Take `NC(=O)c1ccc(-c2ccc(Br)cc2)o1`: the inhibition was 36.5% (inactive).

`CCN1CCN(Cc2cc(OC)c(OC)cc2[N+](=O)[O-])CC1`: the inhibition is 12.6% (inactive).

In the case of `CC(C)c1c(O)cc(-c2ccncc2)n(-c2ccc(Cl)cc2)c1=O`, the inhibition was 3.17% (inactive).

In the case of `COc1cccc(C(C(=O)NC(C)(C)C)N(C(=O)CCC(=O)Nc2cc(C)on2)C2CC2)c1OC` (configuration not stated), the inhibition was 2.4% (inactive).

`COc1ccc(Br)cc1C(=O)O`: the inhibition is -3.94% (inactive).

Take `O=C1C=C(c2ccccc2)C(O)(c2ccccc2)C1` (configuration not stated): the inhibition is -0.71% (inactive).

With `COc1cccc(C(C)NC(=O)c2c(F)cccc2Cl)c1` (configuration not stated), the inhibition was 21.5% (inactive).

As for `Cc1cc(C(=O)Nc2nc3c(s2)CCCC3)no1`, the inhibition was 6.49% (inactive).

For `CC(=O)N[C@@H](Cc1c[nH]c2ccccc12)C(=O)OCC(=O)Nc1ccc(Cl)c(S(=O)(=O)N(C)C)c1`, the inhibition is 7.98% (inactive).

On to `CCN(CC)c1ccc(C2C(C(=O)OCCOC)=C(C)NC3=C2C(=O)CC(C)(C)C3)cc1` (configuration not stated), for which the inhibition was -4.2% (inactive).

`CCOC(=O)N(c1ccccc1)P1(=S)OCCO1`: the inhibition was 10.4% (inactive).

For `CC(=O)Oc1cccc(N2C(=O)C3CC=C(Cl)CC3C2=O)c1` (configuration not stated), the inhibition is 31.6% (inactive).

Turning to `O=S1(=O)CCN(CCc2c[nH]c3ccccc23)CC1`, the inhibition was -4.95% (inactive).

On to `CCOC(=O)N1CCc2c(sc3c2c(=O)n(Cc2ccccc2)c(=O)n3Cc2cccc(C)c2)C1`, for which the inhibition was 5.64% (inactive).

Take `Cc1cc(C)nc(/N=C2\NC(=O)CC(C(=O)O)N2c2ccc(Cl)cc2Cl)n1` (configuration not stated): the inhibition was 0.87% (inactive).

With `COc1ccc(NC(=O)CN(C)CC(=O)Nc2ccccc2SC)cc1`, the inhibition was -3.18% (inactive).

On to `Cc1ccc(S(=O)(=O)N(C)CCCC(=O)Nc2cc(C)ccc2C)cc1`, for which the inhibition was -2.3% (inactive).

On to `O=C(CSc1ncn(-c2ccccc2)n1)Nc1ccc2c(c1)OCCO2`, for which the inhibition is 14.5% (inactive).

In the case of `CCN1c2ccccc2-c2nc3ccccc3n2C1c1cccnc1` (configuration not stated), the inhibition was 1.05% (inactive).

As for `COc1ccc(C2N=C(N)N=C(N)N2c2ccccc2)cc1OC` (configuration not stated), the inhibition is 23% (inactive).

`Cc1c(Cl)cnc(NC(=O)COC(=O)c2nn(C)c(=O)c3ccccc23)c1Cl`: the inhibition is 12.5% (inactive).

Consider `Fc1cccc(F)c1CSc1nc2ccccc2[nH]1`, for which the inhibition is 3.56% (inactive).

`O=C(O)C1CCCN1S(=O)(=O)c1ccc(Br)s1` (configuration not stated) (tested in a mixture with another compound): the inhibition was 6.99% (inactive).

As to `CCCOC(=O)c1ccc(Cl)c(NC(=O)c2ccc(-c3ccccc3)cc2)c1`, the inhibition was 1.66% (inactive).

As to `COc1cccc(-c2cc3c(=O)n(-c4ccccc4)c(=S)[nH]c3s2)c1`, the inhibition is 24.4% (inactive).

With `O=C(CCCN1CCOCC1)c1ccc2c(c1)OCCO2`, the inhibition is 2.27% (inactive).

Regarding `Cn1cccc1/C=C1/C(=O)NC(=O)N(Cc2ccccc2)C1=O`, the inhibition is 35.4% (inactive).

Regarding `COC(=O)C1=NN(c2cccc(C)c2)C2C(=O)N(c3ccccc3OC)C(=O)C12` (configuration not stated), the inhibition was 8.46% (inactive).

Regarding `Cc1ccc2nc(-c3cccc(NC(=O)c4ccc5c(c4)OCCO5)c3)oc2c1`, the inhibition was 4.99% (inactive).

Take `Cc1ccc(Cn2ncc3c(N4CCN(C5CCCC5)CC4)ncnc32)cc1`: the inhibition was 3.96% (inactive).

Turning to `Cc1ccc(C2(O)CN(c3ccccc3C)C3=[N+]2CCS3)cc1` (configuration not stated), the inhibition was 2.57% (inactive).

`COC(=O)CSc1nc(N)nc(C)c1Br`: the inhibition was 3.71% (inactive).

For the molecule `CC(C)C(c1nnnn1Cc1ccc2c(c1)OCO2)N1CCN(C)CC1` (configuration not stated), the inhibition was 6.53% (inactive).

With `CCCn1c(SCC(=O)N2c3ccccc3Sc3ccccc32)nc2c1c(=O)n(C)c(=O)n2C`, the inhibition is -8.34% (inactive).

`CC(=O)OC(C(=O)NCc1ccco1)c1cccnc1` (configuration not stated): the inhibition is 6.49% (inactive).

As for `CN1CCCN(S(=O)(=O)c2cccc(Cl)c2Cl)CC1`, the inhibition was -0.57% (inactive).

Take `C/C(=N\NC(=O)c1cccc(C)c1)c1ccc(N2CCOCC2)cc1`: the inhibition is 4.53% (inactive).

Consider `CCCNC(=O)C1CCN(S(=O)(=O)c2c(C)noc2/C=C\c2ccc(OC)cc2)CC1`, for which the inhibition is 6.76% (inactive).

As for `Cn1c(N)c(C(=O)COC(=O)CN2C(=O)c3ccccc3C2=O)c(=O)n(C)c1=O`, the inhibition is 17.5% (inactive).

With `N=C(N)SCc1nc2ccccc2c(=O)n1-c1ccccc1`, the inhibition is 9.67% (inactive).

As to `CCOc1cccc(C(=O)NC(=S)Nc2ccc(N3CCCC3)cc2)c1`, the inhibition is 10.5% (inactive).

Take `O=C1CC(c2ccccc2)n2nc(NC(=O)C3CCCO3)nc2N1` (configuration not stated): the inhibition is -5.55% (inactive).

In the case of `CC1CC(Nc2ccccc2)=CC(=O)O1` (configuration not stated), the inhibition is -4.3% (inactive).

For `COc1ccc(CCNC(=O)COc2ncnc3cc([N+](=O)[O-])ccc23)cc1`, the inhibition was 15.8% (inactive).

On to `C=CCNS(=O)(=O)c1nc(C)c(Cl)c(C)c1C#N`, for which the inhibition is 0.74% (inactive).

Take `C/C=C/Cn1c(N2CCCCCC2)nc2c1c(=O)[nH]c(=O)n2C`: the inhibition is 17.1% (inactive).

In the case of `CC(=O)Nc1ccccc1Sc1ccc2c3c(cccc13)C(=O)N(c1ccc(C)cc1)C2=O`, the inhibition was -0.84% (inactive).

Broadly, the inhibition is the change of the read-out against control, counted positive when it falls.
